The structures appear in SMILES notation.

One test concerns the target T1, Proteasome Macropain subunit MB1 (Homo sapiens, UniProt P28074).
T1 sequence (P28074 whole entry): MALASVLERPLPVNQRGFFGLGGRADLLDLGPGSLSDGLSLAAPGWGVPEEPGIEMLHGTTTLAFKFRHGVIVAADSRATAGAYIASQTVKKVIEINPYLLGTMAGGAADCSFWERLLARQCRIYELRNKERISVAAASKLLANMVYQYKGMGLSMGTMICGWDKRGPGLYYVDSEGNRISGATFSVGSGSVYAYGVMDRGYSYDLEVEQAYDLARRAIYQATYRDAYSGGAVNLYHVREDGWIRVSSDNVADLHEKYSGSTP
Briefly: Inhibition of chymotrypsin like activity of human 20S proteasome using Suc-Leu-Leu-Val-Tyr-AMC as substrate preincubated for 10 mins followed by substrate addition measured after 1 hr by spectrofluorimetric analysis. Conditions: read-out: IC50.
Take `CC(C)C[C@H](NC(=O)[C@H](Cc1cccc2ccccc12)NC(=O)c1cccc2c1CCCC2)B1OC2C[C@@H]3C[C@@H](C3(C)C)[C@]2(C)O1` (stereo partly specified): the IC50 is 1.34 nM.
Consider `CCCC[C@H](NC(=O)[C@H](CC(C)C)NC(=O)OC(C)(C)C)B1OC2C[C@@H]3C[C@@H](C3(C)C)[C@]2(C)O1` (stereo partly specified), for which the IC50 amounted to 49.5 nM.
Consider `CC(C)C[C@H](NC(=O)[C@@H](NC(=O)C1CCCc2ccccc21)C(C)C)B1OC2C[C@@H]3C[C@@H](C3(C)C)[C@]2(C)O1` (stereo partly specified), for which the IC50 stood at 39 nM.
With `CC(C)C[C@H](NC(=O)[C@H](Cc1c[nH]c2ccccc12)NC(=O)OCc1ccccc1)B1OC2C[C@@H]3C[C@@H](C3(C)C)[C@]2(C)O1` (stereo partly specified), the IC50 turned out to be 41.2 nM.
With `CC(C)C[C@H](NC(=O)[C@H](Cc1cc(C(F)(F)F)cc(C(F)(F)F)c1)NC(=O)c1cc(Cl)ccc1Cl)B(O)O`, the IC50 is 25 nM.
Consider `CC(C)C[C@H](NC(=O)[C@H](Cc1ccccc1)NC(=O)c1cccc2c1CCCC2)B1OC2C[C@@H]3C[C@@H](C3(C)C)[C@]2(C)O1` (stereo partly specified), for which the IC50 is 0.76 nM.
As to `CC(C)C[C@H](NC(=O)[C@H](Cc1cccc2ccccc12)NC(=O)C1CCCc2ccccc21)B1OC2C[C@@H]3C[C@@H](C3(C)C)[C@]2(C)O1` (stereo partly specified), the IC50 is 4.26 nM.
The same measure, in the same setting: then `CC(C)(C)OC(=O)N[C@@H](Cc1ccc(O)cc1)C(=O)N[C@@H](Cc1ccccc1)B1OC2C[C@@H]3C[C@@H](C3(C)C)[C@]2(C)O1` (stereo partly specified), with 114 nM; and `CC(C)C[C@H](NC(=O)[C@H](Cc1ccc(C(F)(F)F)cc1)NC(=O)c1cnccn1)B(O)O`, with 42.6 nM; and `Cc1ccc(C[C@H](NC(=O)[C@H](Cc2ccccc2)NC(=O)[C@H]2CCCc3ccccc32)B2OC3C[C@@H]4C[C@@H](C4(C)C)[C@]3(C)O2)cc1` (stereo partly specified), with 6.7 nM.
Consider `CC(C)C[C@H](NC(=O)[C@H](CC(C)C)NC(=O)c1cccc2c1CCCC2)B1OC2C[C@@H]3C[C@@H](C3(C)C)[C@]2(C)O1` (stereo partly specified), for which the IC50 is 1.15 nM.
Regarding `CC1(C)[C@@H]2CC3OB([C@H](Cc4ccc(F)cc4)NC(=O)[C@H](Cc4ccccc4)NC(=O)[C@H]4CCCc5ccccc54)O[C@@]3(C)[C@H]1C2` (stereo partly specified), the IC50 amounted to 1.26 nM.
On to `CC(C)C[C@H](NC(=O)[C@H](Cc1ccc(O)cc1)NC(=O)OC(C)(C)C)B1OC2C[C@@H]3C[C@@H](C3(C)C)[C@]2(C)O1` (stereo partly specified), for which the IC50 came out at 16.4 nM.
Regarding `CC1(C)[C@@H]2CC3OB([C@H](Cc4ccc(F)cc4)NC(=O)[C@H](Cc4ccccc4)NC(=O)c4cnccn4)O[C@@]3(C)[C@H]1C2` (stereo partly specified), the IC50 was 3.21 nM.
Consider `CC(C)C[C@H](NC(=O)OC(C)(C)C)C(=O)N[C@@H](Cc1ccccc1)B1OC2C[C@@H]3C[C@@H](C3(C)C)[C@]2(C)O1` (stereo partly specified), for which the IC50 was found to be 120 nM.
For `CC(=O)N[C@@H](Cc1ccccc1)C(=O)N[C@@H](CC(C)C)B1OC2C[C@@H]3C[C@@H](C3(C)C)[C@]2(C)O1` (stereo partly specified), the IC50 came to 2.34 nM.
On to `CC(C)C[C@H](NC(=O)[C@H](CC(C)C)NC(=O)C1CCCc2ccccc21)B1OC2C[C@@H]3C[C@@H](C3(C)C)[C@]2(C)O1` (stereo partly specified), for which the IC50 is 14.2 nM.
Still for that read-out and setting: then `CC(C)C[C@H](NC(=O)[C@H](Cc1c[nH]c2ccccc12)NC(=O)C1CCCc2ccccc21)B1OC2C[C@@H]3C[C@@H](C3(C)C)[C@]2(C)O1` (stereo partly specified), with 3.67 nM.
With `CC(C)C[C@H](NC(=O)[C@H](Cc1ccccc1)NC(=O)[C@H]1CCCc2ccccc21)B1OC2C[C@@H]3C[C@@H](C3(C)C)[C@]2(C)O1` (stereo partly specified), the IC50 came to 1.12 nM.
Still for that read-out and setting: then `Cc1ccc(C[C@H](NC(=O)[C@H](Cc2ccccc2)NC(=O)c2cnccn2)B2OC3C[C@@H]4C[C@@H](C4(C)C)[C@]3(C)O2)cc1` (stereo partly specified), with 4.85 nM; and `Cc1ccc(C[C@H](NC(=O)[C@H](Cc2ccccc2)NC(=O)C2CCc3ccccc3C2)B2OC3C[C@@H]4C[C@@H](C4(C)C)[C@]3(C)O2)cc1` (stereo partly specified), with 1.16 nM; and `Cc1ccc(C[C@H](NC(=O)[C@H](Cc2c[nH]c3ccccc23)NC(=O)OCc2ccccc2)B2OC3C[C@@H]4C[C@@H](C4(C)C)[C@]3(C)O2)cc1` (stereo partly specified), with 3.34 nM.
In the case of `CC(C)C[C@H](NC(=O)[C@H](Cc1cccc2ccccc12)NC(=O)c1ccc2ccccc2c1)B1OC2C[C@@H]3C[C@@H](C3(C)C)[C@]2(C)O1` (stereo partly specified), the IC50 stood at 2.46 nM.
Consider `Cc1cnc(C(=O)N[C@@H](Cc2ccccc2)C(=O)N[C@@H](CC(C)C)B(O)O)cn1`, for which the IC50 amounted to 26.2 nM.
For `O=C(N[C@@H](Cc1ccccc1)C(=O)N[C@@H](Cc1ccc(F)cc1)B(O)O)c1cnccn1`, the IC50 is 4.37 nM.
For `CC1(C)[C@@H]2CC3OB([C@H](Cc4ccccc4)NC(=O)[C@H](Cc4ccccc4)NC(=O)[C@H]4CCCc5ccccc54)O[C@@]3(C)[C@H]1C2` (stereo partly specified), the IC50 was 5.24 nM.
Take `Cc1ccc(C[C@H](NC(=O)[C@H](CC(C)C)NC(=O)OC(C)(C)C)B2OC3C[C@@H]4C[C@@H](C4(C)C)[C@]3(C)O2)cc1` (stereo partly specified): the IC50 was determined as 471 nM.
With `CCCC[C@H](NC(=O)[C@H](Cc1ccccc1)NC(C)=O)B1OC2C[C@@H]3C[C@@H](C3(C)C)[C@]2(C)O1` (stereo partly specified), the IC50 is 8.46 nM.
Still for that read-out and setting: then `CC(C)C[C@H](NC(=O)[C@H](Cc1ccc2ccccc2c1)NC(=O)[C@H]1CCCc2ccccc21)B1OC2C[C@@H]3C[C@@H](C3(C)C)[C@]2(C)O1` (stereo partly specified), with 6.12 nM; and `CC(C)C[C@H](NC(=O)[C@@H](NC(=O)c1cccc2c1CCCC2)C(C)C)B1OC2C[C@@H]3C[C@@H](C3(C)C)[C@]2(C)O1` (stereo partly specified), with 6.96 nM.
On to `CCCC[C@H](NC(=O)[C@H](Cc1ccccc1)NC(=O)[C@H]1CCCc2ccccc21)B1OC2C[C@@H]3C[C@@H](C3(C)C)[C@]2(C)O1` (stereo partly specified), for which the IC50 stood at 1.92 nM.
The same measure, in the same setting: then `CC(C)C[C@H](NC(=O)[C@H](Cc1ccccc1)NC(=O)C1CCc2ccccc2C1)B1OC2C[C@@H]3C[C@@H](C3(C)C)[C@]2(C)O1` (stereo partly specified), with 1.46 nM; and `CC(C)C[C@H](NC(=O)[C@H](Cc1ccccc1)NC(=O)[C@@H]1CCCc2ccccc21)B1OC2C[C@@H]3C[C@@H](C3(C)C)[C@]2(C)O1` (stereo partly specified), with 5.17 nM; and `CCC(C)[C@H](NC(=O)C1CCCc2ccccc21)C(=O)N[C@@H](CC(C)C)B1OC2C[C@@H]3C[C@@H](C3(C)C)[C@]2(C)O1` (stereo partly specified), with 17.2 nM.
As to `CC(C)C[C@H](NC(=O)[C@H](Cc1ccc2ccccc2c1)NC(=O)C1CCCc2ccccc21)B1OC2C[C@@H]3C[C@@H](C3(C)C)[C@]2(C)O1` (stereo partly specified), the IC50 is 7.63 nM.
In the case of `CC1(C)[C@@H]2CC3OB([C@H](Cc4ccccc4)NC(=O)[C@H](Cc4ccccc4)NC(=O)C4CCc5ccccc5C4)O[C@@]3(C)[C@H]1C2` (stereo partly specified), the IC50 is 3.37 nM.
As for `CC(C)C[C@H](NC(=O)[C@H](Cc1ccccc1)NC(=O)C1CCCc2ccccc21)B1OC2C[C@@H]3C[C@@H](C3(C)C)[C@]2(C)O1` (stereo partly specified), the IC50 worked out at 4.18 nM.
Consider `CC(C)C[C@H](NC(=O)[C@H](Cc1ccccc1)NC(=O)c1cnccn1)B1OC2C[C@@H]3C[C@@H](C3(C)C)[C@]2(C)O1` (stereo partly specified), for which the IC50 turned out to be 1.92 nM.
Consider `CC(C)C[C@H](NC(=O)[C@H](Cc1ccc2ccccc2c1)NC(=O)c1cccc2c1CCCC2)B1OC2C[C@@H]3C[C@@H](C3(C)C)[C@]2(C)O1` (stereo partly specified), for which the IC50 stood at 1.16 nM.
Take `CC(=O)N[C@@H](Cc1ccccc1)C(=O)N[C@@H](Cc1ccc(C)cc1)B1OC2C[C@@H]3C[C@@H](C3(C)C)[C@]2(C)O1` (stereo partly specified): the IC50 was 2.73 nM.

Still in this test, the particulars now being: read-out: pIC50 (converted).
For `CC(C)C[C@H](NC(=O)[C@H](Cc1ccccc1)NC(=O)c1cccc2c1CCCC2)B1OC2C[C@@H]3C[C@@H](C3(C)C)[C@]2(C)O1` (stereo partly specified), the IC50 is 1.32 nM.

Source of the values: ChEMBL document CHEMBL3792352, “3D-QSAR-aided design, synthesis, in vitro and in vivo evaluation of dipeptidyl boronic acid proteasome inhibitors and mechanism studies” (Bioorg Med Chem, 2016).
